The numbers were not newly measured in patent publication US3993756A, “Antilipemic agent containing a soybean oil fraction” (priority 1975, dated 1976), which cites them from elsewhere.

For data set [1], the system named is cholesterol level in blood serum. Conditions: for effect on cholesterol level in blood serum: in vivo.
The conditions of data set [2]: in vivo.

As for `CC[C@H](CC[C@@H](C)[C@H]1CC[C@H]2[C@@H]3CC=C4C[C@@H](O)CC[C@]4(C)[C@H]3CC[C@]12C)C(C)C` [β-sitosterol], in data set [1] (20 to 30 g per day, long periods), the “liver or kidney troubles” value is “inviting liver or kidney troubles”. For the same molecule, in data set [1], the “effect on cholesterol level in blood serum” value is “effective for lowering the cholesterol level in blood serum”. Besides, the “absorption by the body” value in data set [2] was “low absorption”.

As to `CC[C@H](/C=C/[C@@H](C)[C@H]1CC[C@H]2[C@@H]3CC=C4C[C@@H](O)CC[C@]4(C)[C@H]3CC[C@]12C)C(C)C` [stigmasterol], the “effect on cholesterol level in blood serum” value in data set [1] is reported as “effective for lowering the cholesterol level in blood serum”.
